Laboratory results: patent US12616759B2, “Uses of labeled HSP90 inhibitors” (Sloan-Kettering Institute for Cancer Research, priority 2011, dated 2026)

Key:
[1] = tested on: AML cell lines; experiment: apoptosis in AML cell lines, acridine orange/ethidium bromide; assay type: cell-based, human
Method: (§1) Apoptosis Assay: Cells were treated for 24, 48 or 72 h with vehicle (DMSO) or inhibitors as indicated. Following staining with Acridine Orange and Ethidium Bromide (1:1 mix of 100 µg/ml), cells were visualized with a fluorescent microscope (Zeiss Axiovert 40 CFL) and counted. Percentage of apoptotic cells was determined from 200-300 cells counted in each group. The percentage of apoptotic cells was calculated as: % Apoptotic cells=(total number of cells with apoptotic nuclei/total number of cells counted)×100.

[2] = tested on: FL5.12 mAKT-transfected cells; experiment: apoptosis in mAKT-transfected FL5.12 cells; assay type: cell-based
Excerpt: FL5.12 was derived as an interleukin-3 (IL-3)-dependent cell line with a functional JAK/STAT pathway and it has characteristic features of an early lymphocytic progenitor. Both the parental cells and the transfected cells express moderate-levels of active AKT and STAT5, as evidenced by AKT phosphorylation on Ser473 and STAT5 phosphorylation on Tyr694, respectively. The level of p-STAT5 but not p-AKT is dependent on the presence of IL-3. Introduction of a constitutively activated, myristoylated form of AKT (mAKT) under the control of a doxycycline (DOX)-inducible promoter further allows for the regulation of p-AKT levels in these cells. All together, these cells are a good isogenic model to evaluate the dependence of HSP90 inhibitor apoptotic sensitivity on activated AKT and STAT5-pathways.
Cells: Kasumi-1, SKNO-1, MOLM-13, MO-91, HEL, HL-60, THP-1, MV4-11 were grown in RPMI media supplemented with 10 mM HEPES, 4.5 g/L glucose, 1.5 g/L sodium bicarbonate, 1 mM sodium pyruvate, 10% FBS, and 1% penicillin/streptomycin. The stable transfectants of FL5.12 were previously described (18-Karnauskas 2003). In brief, for the generation of FL5.mAKT the myristylated AKT was cloned in the doxycycline inducible vector pRevTRE (Clontech) (this clone is designated mAKT). As a control, cell were transfected with vector alone (this clone is designated Vector). For generation of FL5.mAkt.Bcl-xL, the human Bcl-xL cDNA was cloned into the EcoRI site of the pBabePuro vector, and transfected into FL5.mAkt3 as described (18) (this clone is designated mAKT.Bcl-xL). These lines were cultured as described previously using DME-HG media supplemented with 10 mM HEPES, 10% FBS media containing 1 mg/ml Geneticin (G418) (Sigma #G9516) and 1 or 2 ng/mL of IL-3 (RD Systems #403 ML).
as §1
Western blot: Cells were grown to 60-70% confluence and treated with inhibitor or vehicle for the indicated times. Protein lysates were prepared in 50 mM Tris pH 7.4, 150 mM NaCl and 1% NP-40 lysis buffer. Protein concentrations were measured using the BCA kit (Pierce) according to the manufacturer's instructions. Protein lysates (10-100 μg) were resolved by SDS-PAGE, transferred onto nitrocellulose membrane and incubated with the indicated primary antibodies. […]

[3] = tested on: HSP90; experiment: fluorescence polarization HSP90 binding assay using SKBr3 cancer cell lysate; settings: fluorescence polarization
[4] = tested on: HSP90; experiment: concomitant binding to HSP90 and streptavidin, K562 lysate; settings: 100 μM; for HSP90-streptavidin binding with K562 lysate: streptavidin beads, overnight; for band at approximately 90 kDa, concomitant binding to HSP90 and streptavidin: K562 lysate, SDS-PAGE
Method: Having shown that each of the prepared biotinylated molecules retain good affinity to HSP90 we next wanted to determine whether the chain length was sufficient to maintain concomitant binding to HSP90 and streptavidin. […] Following sufficient washing to remove any unbound material, the remaining bead pellet was analyzed by SDS-PAGE. The gel was washed and stained with coomasie blue for 1 h.

[5] = tested on: HSP90; experiment: concomitant HSP90-streptavidin binding in live K562 cells; assay type: cell-based; settings: for HSP90-streptavidin binding with K562 cells: live cells
Excerpt: Having shown that some of the molecules bind concomitantly to HSP90 and streptavidin, we next investigated whether this can similarly be accomplished in live cells.

[6] = tested on: lung and bone metastases; experiment: response of breast cancer patient to STA9090 by CT and FDG-PET; assay type: in vivo, human; settings: triple-negative breast cancer patient
Method: FIGS. 28A, 28B, 28C, and 28D. A triple-negative breast cancer patient was imaged with ^124I-PU-H71 PET. At 20 min post-injection, uptake is noted in a lung mass (left arrow), and a bone lesion (right arrow) FIG. 28A, but at 24 h uptake is seen only in the lung lesion FIG. 28B. Both the lung and bone tumors are confirmed by CT and FDG-scans FIG. 28C. The patient started treatment with the HSP90 inhibitor STA-9090.
In another aspect of the present invention, patients who are identified as being candidates for HSP90 therapy are treated with a pharmaceutically effective amount of an HSP90 inhibitor. We have determined that cancer patients that are determined to be candidates to HSP90 inhibition therapy respond highly favorably to HSP90 inhibition therapy. If a patient has multiple tumors, then only those tumors with a sufficient avidity for the radiolabeled HSP90 inhibitor are expected to respond to HSP90 inhibition therapy. […] Similar results were obtained in patients with lymphoma, pancreatic cancer and neuroblastoma patients.

SMILES | EC50 [3] [nM] | HSP90-streptavidin binding with K562 lysate [4] | band at approximately 90 kDa, concomitant binding to HSP90 and streptavidin [4] | HSP90-streptavidin binding with K562 cells ([5]; 100 μM, 4 h) | binding in live K562 cells ([5]; 100 μM, 4 h) | also measured
O=c1[nH]c2ccccc2n1C1CCN(Cc2ccc(-c3nc4cc5[nH]cnc5cc4nc3-c3ccccc3)cc2)CC1 [AKTi, reference compound] |  |  |  |  |  | effect on apoptosis ([1]; HEL cells in culture): little to no effect; apoptotic cells ([2]; AKT activity increased by DOX): 30%; apoptotic cells ([2]; without DOX): 15-20%
COc1cccc(-c2cc(=O)c3ccccc3o2)c1N [MEKi, reference compound] |  |  |  |  |  | induction of apoptosis ([1]; 24, 48 and 72 h): Modest or little induction of apoptosis
CC(C)N(CCCn1c(Sc2cc3c(cc2I)OCO3)nc2c(N)ncnc21)C(=O)CCCC[C@@H]1SC[C@@H]2NC(=O)N[C@@H]21 [PU-H71-biotin2] | 154 | No | did not show a band at 90 kDa | No |  | 
Nc1ncnc2c1nc(Sc1cc3c(cc1I)OCO3)n2CCCNC(=O)CCCC[C@@H]1SC[C@@H]2NC(=O)N[C@@H]21 [PU-H71-biotin3] | 44.3 | No | did not show a band at 90 kDa | No |  | 
Nc1ncnc2c1nc(Sc1cc3c(cc1I)OCO3)n2CCCNC(=O)CCCCCNC(=O)CCCC[C@@H]1SC[C@@H]2NC(=O)N[C@@H]21 [PU-H71-biotin4] | 34.8 | No | did not show a band at 90 kDa | No |  | 
Nc1ncnc2c1nc(Sc1cc3c(cc1I)OCO3)n2CCCNC(=O)CCCCCNC(=O)CCCCCNC(=O)CCCC[C@@H]1SC[C@@H]2NC(=O)N[C@@H]21 [PU-H71-biotin5] | 31.4 | Yes | show a band at approximately 90 kDa | Yes | are able to permeate the cell membrane | 
Nc1ncnc2c1nc(Sc1cc3c(cc1I)OCO3)n2CCCNC(=O)CCOCCOCCOCCOCCNC(=O)CCCC[C@@H]1SC[C@@H]2NC(=O)N[C@@H]21 [PU-H71-biotin6] | 66.2 | Yes | show a band at approximately 90 kDa | Yes | are able to permeate the cell membrane | band at approximately 90 kDa ([5]; 0.5 μM): still shows a faint band; binding in live K562 cells ([5]; 10 μM): maintain good binding; band at approximately 90 kDa ([5]; lowest concentration 1 μM): a faint band is still present
CC(C)N(CCCn1c(Sc2cc3c(cc2I)OCO3)nc2c(N)ncnc21)C(=O)CCCCCNC(=O)CCCC[C@@H]1SC[C@@H]2NC(=O)N[C@@H]21 [PU-H71-biotin7] | 72.8 | No | did not show a band at 90 kDa | No |  | 
CC(C)N(CCCn1c(Sc2cc3c(cc2I)OCO3)nc2c(N)ncnc21)C(=O)CCCCCNC(=O)CCCCCNC(=O)CCCC[C@@H]1SC[C@@H]2NC(=O)N[C@@H]21 [PU-H71-biotin8] | 76.9 | Yes | show a band at approximately 90 kDa | Yes | are able to permeate the cell membrane | 
CC(C)N(CCCn1c(Sc2cc3c(cc2I)OCO3)nc2c(N)ncnc21)C(=O)CCOCCOCCOCCOCCNC(=O)CCCC[C@@H]1SC[C@@H]2NC(=O)N[C@@H]21 [PU-H71-biotin9] | 110 | Yes | show a band at approximately 90 kDa | Yes | are able to permeate the cell membrane | binding in live K562 cells ([5]; 10 μM): maintain good binding; band at approximately 90 kDa ([5]; lowest concentration 1 μM): a faint band is still present
Nc1ncnc2c1nc(Sc1cc3c(cc1I)OCO3)n2CCCNCCOCCOCCOCCNC(=O)CCCC[C@@H]1SC[C@@H]2NC(=O)N[C@@H]21 [PU-H71-biotin] | 58.9 | Yes | show a band at approximately 90 kDa | No | failed to maintain binding in live cells | 
CC(C)c1cc(-c2n[nH]c(=O)n2-c2ccc3c(ccn3C)c2)c(O)cc1O [STA9090] |  |  |  |  |  | tumor response [6]: early partial response was demonstrated by FDG PET-CT studies in the lung mass but not in the spinal lesion; tumor response ([6]; listed as STA-9090): the lung but not the bone lesion is remarkably reduced in size
